Each structure is given as a SMILES string.

As to `CCOC(=O)c1c(C)[nH]c(C=C2C(=O)NN=C2OC(C)C)c1C` [Example 49, 4-[(3,5-Dimethyl-4-ethoxycarbonylpyrrol-2-yl)methylene]-3-isopropoxy-2-pyrazolin-5-one], the melting point lay within 226 to 228 °C.
Regarding `Cn1cc(C=C2C(=O)NN=C2c2cccnc2)c2ccccc21` [Example 275, 4-[(1-Methylindol-3-yl)methylene]-3-(3-pyridyl)-2-pyrazolin-5-one], the melting point lay within 230 to 232 °C.
Then `O=C1NN=C(c2ccc[nH]2)C1=Cc1c[nH]c2ccccc12` [Example 271, 4-[(Indol-3-yl)methylene]-3-(pyrrol-2-yl)-2-pyrazolin-5-one], with 300 to 302 °C.
`O=C1NN=C(CCc2ccccc2)C1=Cc1c[nH]c2ncccc12` [Example 357, 4-[(7-Azaindol-3-yl)methylene]-3-phenylethyl-2-pyrazolin-5-one] had a melting point of 317 to 319 °C.
`Cc1[nH]c2ccccc2c1C=C1C(=O)NN=C1OC(C)C` [Example 244, 3-Isopropoxy-4-[(2-methylindol-3-yl)methylene]-2-pyrazolin-5-one]: the melting point lay within 262 to 264 °C.
Then `CCOC1=NNC(=O)C1=Cc1cc(C(=O)O)c[nH]1` [Example 154, 4-[(4-Carboxypyrrol-2-yl)methylene]-3-ethoxy-2-pyrazolin-5-one], with 290 to 293 °C.
Then `CN(C)Cc1c(C=C2C(=O)NN=C2C2CC2)[nH]c2ccccc12` [Example 312, 3-Cyclopropyl-4-[(3-dimethylaminomethylindol-2-yl)methylene]-2-pyrazolin-5-one], with 202 °C (dec.).
Turning to `Cc1ccc(CC2=NNC(=O)C2=Cc2c[nH]c3ccccc23)cc1` [Example 219, 4-[(Indol-3-yl)methylene]-3-(4-methylbenzyl)-2-pyrazolin-5-one], the melting point lay in the range of 280 to 282 °C.
For the molecule `Cc1c(CCC(=O)O)c[nH]c1C=C1C(=O)NN=C1OC(C)C` [Example 82, 4-{[4-(2-Carboxyethyl)-3-methylpyrrol-2-yl]methylene}-3-isopropoxy-2-pyrazolin-5-one], the melting point lay within 267 to 269 °C.
Then `CCOC(=O)c1c[nH]c(C=C2C(=O)NN=C2c2cnccn2)c1` [Example 136, 4-[(4-Ethoxycarbonylpyrrol-2-yl)methylene]-3-pyrazinyl-2-pyrazolin-5-one], with 155 to 157 °C.
In the case of `CCOC(=O)c1c(C)[nH]c(C=C2C(=O)NN=C2C(F)(F)F)c1C` [Example 160, 4-[(3,5-Dimethyl-4-ethoxycarbonylpyrrol-2-yl)methylene]-3-trifluoromethyl-2-pyrazolin-5-one], the melting point was in the range of 252 to 254 °C.
The value for `O=C1NN=C(c2c[nH]c3ccccc23)C1=Cc1c[nH]c2ccccc12` [Example 230, 3-(Indol-3-yl)-4-[(indol-3-yl)methylene]-2-pyrazolin-5-one] was 288 to 292 °C; that for `CC(C)OC1=NNC(=O)C1=Cc1ccc(N(C)C)cc1` [Example 359, 4-[(4-Dimethylaminophenyl)methylene]-3-isopropoxy-2-pyrazolin-5-one] was 197 to 198 °C.
Then `CCc1c(C)[nH]c(C=C2C(=O)NN=C2CCc2ccc(N)cc2)c1C` [Example 45, 3-(4-Aminophenylethyl)-4-[(3,5-dimethyl-4-ethylpyrrol-2-yl)methylene]-2-pyrazolin-5-one], with 183 to 185 °C; and `CCOC(=O)c1ccc(C=C2C(=O)NN=C2OC(C)C)[nH]1` [Example 90, 4-[(5-Ethoxycarbonylpyrrol-2-yl)methylene]-3-isopropoxy-2-pyrazolin-5-one], with 205 to 207 °C.
The molecule `COc1ccc(CC2=NNC(=O)C2=Cc2c[nH]c3ccccc23)cc1` [Example 215, 4-[(Indol-3-yl)methylene]-3-(4-methoxybenzyl)-2-pyrazolin-5-one] displayed a melting point of 265 to 270 °C.
The molecule `O=C1NN=C(c2ccncc2)C1=Cc1cn(CCCCO)c2ccccc12` [Example 267, 4-{[1-(4-Hydroxybutyl)indol-3-yl]methylene}-3-(4-pyridyl)-2-pyrazolin-5-one] had a melting point of 224 to 225 °C.
Take `CC(C)OC1=NNC(=O)C1=Cc1ncc[nH]1` [Example 364, 4-[(Imidazol-2-yl)methylene]-3-isopropoxy-2-pyrazolin-5-one]: the melting point fell in the range of 212 to 214 °C.
As for `CCN(CC)CCCc1c(C)[nH]c(C=C2C(=O)NN=C2c2cnccn2)c1C` [Example 186, 4-{[4-(3-Diethylaminopropyl)-3,5-dimethylpyrrol-2-yl]methylene}-3-pyrazinyl-2-pyrazolin-5-one], the melting point is 208.1 °C.
The value for `Cc1[nH]c(C=C2C(=O)NN=C2c2cnccn2)c(C)c1CCCCO` [Example 192, 4-{[3,5-Dimethyl-4-(4-hydroxybutyl)pyrrol-2-yl]methylene}-3-pyrazinyl-2-pyrazolin-5-one] was 222 °C; that for `Cn1cc(C=C2C(=O)NN=C2C2CCOC2)c2ccccc21` (stereo not drawn) [Example 291, 4-[(1-Methylindol-3-yl)methylene]-3-(tetrahydrofuran-3-yl)-2-pyrazolin-5-one] was 208 to 210 °C.
As to `Cn1cc(C=C2C(=O)NN=C2c2ccno2)c2ccccc21` [Example 302, 3-(5-Isoxazolyl)-4-[(1-methylindol-3-yl)methylene]-2-pyrazolin-5-one], the melting point was 271 to 272 °C.
For `CCOC1=NNC(=O)C1=Cc1cn(C)c2ccccc12` [Example 301, 3-Ethoxy-4-[(1-methylindol-3-yl)methylene]-2-pyrazolin-5-one], the melting point was in the range of 194 to 196 °C.
`O=C1NN=C(c2cccnc2)C1=Cc1cc2ccccc2[nH]1` displayed a melting point of 155 to 157 °C.
The molecule `O=C1NN=C(CCc2ccc([N+](=O)[O-])cc2)C1=Cc1ccc[nH]1` [Example 32, 3-(4-Nitrophenylethyl)-4-[(pyrrol-2-yl)methylene]-2-pyrazolin-5-one] had a melting point of 224 to 226 °C.
For `COc1ccc(NC(=O)CC2=NNC(=O)C2=Cc2ccc[nH]2)cc1` [Example 54, 3-(4-Methoxyphenylaminocarbonylmethyl)-4-[(pyrrol-2-yl)methylene]-2-pyrazolin-5-one], the melting point was 240 to 242 °C.
Regarding `O=C1NN=C(Cc2ccc(Cl)cc2)C1=Cc1c[nH]c2ccccc12` [Example 223, 3-(4-Chlorobenzyl)-4-[(indol-3-yl)methylene]-2-pyrazolin-5-one], the melting point was in the range of 274 to 277 °C.
In the case of `Cc1[nH]c(C=C2C(=O)NN=C2c2cnccn2)c(C)c1CN1CCCCC1` [Example 167, 4-[(3,5-Dimethyl-4-piperidinomethylpyrrol-2-yl)methylene]-3-pyrazinyl-2-pyrazolin-5-one], the melting point fell in the range of 240 to 242 °C.
As for `CC1(C)C(C2=NNC(=O)C2=Cc2c[nH]c3ccccc23)C1(C)C` [Example 264, 4-[(Indol-3-yl)methylene]-3-(2,2,3,3-tetramethylcyclopropyl)-2-pyrazolin-5-one], the melting point lay within 296 to 298 °C.
For `Cc1[nH]c(C=C2C(=O)NN=C2OC(C)C)c(C)c1C(=O)OCCN(C)C` [Example 88, 4-{[4-(2-Dimethylaminoethoxycarbonyl)-3,5-dimethylpyrrol-2-yl]methylene}-3-isopropoxy-2-pyrazolin-5-one], the melting point fell in the range of 165 to 167 °C.
As to `CCOC(=O)C1=NNC(=O)C1=Cc1c[nH]c2ccccc12` [Example 283, 3-Ethoxycarbonyl-4-[(indol-3-yl)methylene]-2-pyrazolin-5-one], the melting point is 250 °C (dec.).
`CCOC1=NNC(=O)C1=Cc1cc(Cl)c[nH]1` [Example 111, 4-[(4-Chloropyrrol-2-yl)methylene]-3-ethoxy-2-pyrazolin-5-one] returned a melting point of 237 to 239 °C.
Then `CCc1c(C)[nH]c(C=C2C(=O)NN=C2CCc2ccc(O)cc2)c1C` [Example 52, 4-[(3,5-Dimethyl-4-ethylpyrrol-2-yl)methylene]-3-(4-hydroxyphenylethyl)-2-pyrazolin-5-one], with 260 to 262 °C; and `Cc1[nH]c(C=C2C(=O)NN=C2c2cccs2)c(C)c1CN(C)C` [Example 143, 4-[(3,5-Dimethyl-4-dimethylaminomethylpyrrol-2-yl)methylene]-3-(2-thienyl)-2-pyrazolin-5-one], with 208 to 210 °C.
The value for `CCOC1=NNC(=O)C1=Cc1cc2ccccc2[nH]1` [Example 324, 3-Ethoxy-4-[(indol-2-yl)methylene]-2-pyrazolin-5-one] was 265 to 267 °C.
With `O=C1NN=C(Nc2ccc(Cl)cc2)C1=Cc1c[nH]c2ccccc12` [Example 225, 3-(4-Chlorophenylamino)-4-[(indol-3-yl)methylene]-2-pyrazolin-5-one], the melting point is 248 to 250 °C.
For `CCc1ccc(C=C2C(=O)NN=C2OC(C)C)[nH]1` [Example 51, 4-[(5-Ethylpyrrol-2-yl)methylene]-3-isopropoxy-2-pyrazolin-5-one], the melting point lay in the range of 119 to 121 °C.
In turn, `O=C1NN=C(c2ccccn2)C1=Cc1c[nH]c2ccccc12` [Example 269, 4-[(Indol-3-yl)methylene]-3-(2-pyridyl)-2-pyrazolin-5-one] gave a melting point of 278 to 280 °C.
Regarding `COc1ccc2[nH]c(C=C3C(=O)NN=C3C3CC3)cc2c1` [Example 317, 3-Cyclopropyl-4-[(5-methoxyindol-2-yl)methylene]-2-pyrazolin-5-one], the melting point lay in the range of 221 to 224 °C.
The value for `Cc1[nH]c(C=C2C(=O)NN=C2C2CC2)c(C)c1CNC(=O)C(F)(F)F` [Example 131, 3-Cyclopropyl-4-[(3,5-dimethyl-4-trifluoroacetamidomethylpyrrol-2-yl)methylene]-2-pyrazolin-5-one] was 278 to 280 °C; that for `CCOC(=O)c1c(C)[nH]c(C=C2C(=O)NN=C2C2CC2)c1C` [Example 75, 3-Cyclopropyl-4-[(3,5-dimethyl-4-ethoxycarbonylpyrrol-2-yl)methylene]-2-pyrazolin-5-one] was 240 to 242 °C; that for `Cc1[nH]c(C=C2C(=O)NN=C2c2nc3ccccc3s2)c(C)c1CN1CCOCC1` [Example 134, 3-(Benzothiazol-2-yl)-4-[(3,5-dimethyl-4-morpholinomethylpyrrol-2-yl)methylene]-2-pyrazolin-5-one] was 285 °C (dec.).

For the origin of these results see US7060822B1, “2-pyrazolin-5-ones” (Abbott GmbH & Co. KG, priority 1999, dated 2006).
